Source: ChEMBL document CHEMBL1159373, “New acetylenic acids from a sponge of the genus Stelletta” (2003)
Converted amounts (≈) assume the structure as drawn.

System: K562
Test: Cytotoxicity against human K562 cells
Assay type: functional
Conditions: read-out: LC50 (the source's name)

| Compound | CC50 [µg/mL] |
| --- | --- |
| C=CCCCCC(C)CCCCCC#CCCCC(=O)O (configuration not stated) | 43.5 (≈ 149 µM) |
| C=CCCCCC(C)CCCCCC#CCCC(OC)C(=O)OC(=O)C(CCC#CCCCCCC(C)CCCCC=C)OC (configuration not stated) | 62.5 (≈ 99.7 µM) |
